We go through 35 molecules from PubChem BioAssay (NCI).

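The compound was tested at five concentrations on cells cultured in 96-well plates, with a 48-hour exposure period. GI50 is the concentration that inhibits growth by half. TGI marks complete inhibition of growth.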 Where only a bound is given, the exact number is not on record here.

This test relates to MDA-MB-468 breast. Kind of test: NCI tumour cell line growth inhibition, 48 h.
On to `C[C@]12CC[C@@H]3c4ccc(O)cc4CC[C@H]3[C@@H]1CC[C@@H]2NS(=O)(=O)c1ccc(C(F)(F)F)cc1`, for which the GI50 was 2.18 µM and the TGI turned out to be 6.23 µM. Taken in the same sequence, the figures for `Cc1cc(C)cc(Nc2cc(C)nc3nc(C(F)(F)F)nn23)c1` were 8.3 µM and above 100 µM. Taken in the same sequence, the figures for `CC(C)CSc1nc(Nc2ccccc2)c(C#N)c(-c2ccc(F)cc2)n1` were 3.07 µM and 17.4 µM. In the case of `COc1ccc(C(=O)/C=C/c2cccnc2Nc2cc(OC)c(OC)c(OC)c2)cc1`, the GI50 is 0.551 µM and the TGI was found to be 2.76 µM. The like results for `COc1cc([C@@H]2c3cc4c(cc3C(O[C@@H]3O[C@@H]5CO[C@@H](c6cccs6)OC5[C@H](O)[C@H]3O)C3COC(=O)[C@@H]32)OCO4)cc(OC)c1O` (some centres undefined) were, in that order, 0.0914 µM and 0.302 µM. The like results for `COC(=O)[C@]12CCC(C)(C)C[C@H]1C1=CC[C@@H]3[C@@]4(C)C/C(=C/c5cccnc5)C(=O)C(C)(C)[C@@H]4CC[C@@]3(C)[C@]1(C)CC2` were, in that order, 12.3 µM and 47.2 µM. `COc1ccc(-c2cc3c(nn2)-c2ccccc2C3=O)cc1`: the GI50 is above 100 µM and the TGI was above 100 µM. As for `O=C(C[C@@H](C(=O)NCc1cccc(C(F)(F)F)c1)N1C(=O)[C@@H](N2C(=O)OC[C@@H]2c2ccccc2)[C@H]1/C=C/c1ccccc1)NC1CCN(Cc2ccccc2)CC1`, the GI50 is 2.66 µM and the TGI was determined as 18.4 µM. In the case of `C=C1C(=O)O[C@H]2[C@H]1CC/C(COC(=O)/C=C\C(=O)NCc1ccc(Cn3c(=O)sn(-c4ccc(C#N)cc4)c3=O)cc1)=C\CC[C@@]1(C)O[C@@H]21`, the GI50 was 0.735 µM and the TGI turned out to be 1.67 µM. As to `CCOC(=O)/C(O)=C(/C=NC(=S)c1ccncc1)C(=O)OCC`, the GI50 was above 100 µM and the TGI was above 100 µM. Turning to `COc1ccc(S(=O)(=O)N(Cc2ccc3c(n2)C=CC(C)(C)O3)C2CCC2)cc1OC`, the GI50 is below 0.01 µM and the TGI was below 0.01 µM. On to `CN(C)CCNc1ccc2ncc(C#Cc3cncc(C(=O)Nc4ccc(CN5CCN(C)CC5)c(C(F)(F)F)c4)c3)n2n1`, for which the GI50 was 0.617 µM and the TGI turned out to be 1.41 µM. In the case of `C[C@]12CC[C@@H]3c4ccc(Oc5nc(N6CC6)nc(N6CC6)n5)cc4CC[C@H]3[C@@H]1CCC2=O`, the GI50 is 2 µM and the TGI is 12.6 µM.

With `COc1ccc(C2CC(=O)c3c(O)c(OC)c(OC)c(OC)c3O2)c(O)c1` (centres undefined), the GI50 was 0.0831 µM and the TGI stood at 36.9 µM. As for `CCCCNC(=O)NS(=O)(=O)c1ccc(N2N=C(c3ccc(C)cc3C)CC2c2ccc(N(C)C)cc2)cc1` (centres undefined), the GI50 was 2.22 µM and the TGI worked out at 5.82 µM. Take `COc1cc(-c2c(C#N)c(N)n3c(nc4ccccc43)c2C#N)cc(Br)c1OC`: the GI50 was 5.54 µM and the TGI was above 100 µM. As to `Cn1cc(C2=C(c3cn(C)c4c(N)cccc34)C(=O)NC2=O)c2ccccc21`, the GI50 is 1.28 µM and the TGI is above 25 µM. Take `Cc1[nH]c(N=Nc2ccccc2)nc1N=Nc1ccccc1`: the GI50 was 1.92 µM and the TGI worked out at 5.99 µM. The like results for `O=C(CCCSc1nc(-c2ccc(Cl)cc2)cc(-c2ccc(Cl)cc2)n1)NO` were, in that order, 1.42 µM and 3.48 µM. The like results for `COc1cc(Cn2c(-c3ccccc3)cc3c2-c2oncc2CC3)cc(OC)c1OC` were, in that order, 0.298 µM and 2.21 µM. For `Nc1nccc(-c2c(-c3ccc(F)cc3)ncn2CCCN2CCOCC2)n1`, the GI50 is above 6.39 µM and the TGI was above 25 µM. Taken in the same sequence, the figures for `CCCNC(=S)N/N=C(\C)c1ccccn1` were below 0.01 µM and 0.109 µM. Taken in the same sequence, the figures for `C[C@]12CC[C@@H]3c4ccc(O)cc4C[C@@H](CCCCCCCCCS(=O)CCCC(F)(F)C(F)(F)F)[C@H]3[C@@H]1CC[C@@H]2O` (some centres undefined) were above 100 µM and above 100 µM.

On to `CN1C(=O)N(c2ccccc2)C2N=C(N/N=C/c3ccccc3)SC21` (centres undefined), for which the GI50 is 0.51 µM and the TGI is above 100 µM. Taken in the same sequence, the figures for `COc1cccc(NCc2nnc(Nc3ccc(Cl)cc3)c3ccccc23)c1` were 1.05 µM and 4.73 µM. Taken in the same sequence, the figures for `CC12CCCC(CC(=O)c3[nH]c4ccccc4c31)C2` (centres undefined) were 0.375 µM and 4.16 µM. As to `Cc1cc(C2CCCCC2)n(O)c(=O)c1`, the GI50 is 1.72 µM and the TGI turned out to be 8.96 µM. Taken in the same sequence, the figures for `COc1ccc(-c2nc(-c3nc4ccc(C)cc4[nH]3)c3ccccn23)cc1` were 2.32 µM and 7.13 µM. The like results for `CCCCC/C=C/C/C=C/CCCCCCCC1=NC(C)(C)CN1C(C)C` were, in that order, 1.37 µM and 2.72 µM.

Consider `COc1ccc(OC(=O)O[C@H]2[C@H](O[C@H]3[C@@H](O)COC(O[C@H]4C[C@H]5[C@@H]6CC=C7C[C@@H](O)CC[C@]7(C)[C@H]6CC[C@]5(C)[C@H]4[C@H](C)C(=O)CCC(C)C)[C@@H]3OC(C)=O)OC[C@@H](O)[C@@H]2O)cc1` (some centres undefined), for which the GI50 was 0.0373 µM and the TGI was 4.94 µM. Consider `CC[C@H](C)[C@H](NC(=O)[C@H]1CCCCN1C)C(=O)N(C)[C@H](CCc1nc(C(=O)N[C@@H](Cc2ccccc2)C[C@H](C)C(=O)OC)cs1)C(C)C`, for which the GI50 is 0.0696 µM. For the molecule `NC(N)=NC(N)=Nc1cc2ccccc2c2ccccc12`, the GI50 was 2.81 µM and the TGI was determined as 14.3 µM. Take `COc1ccc(-n2c(SCc3cc(OC)c(OC)c(OC)c3)nc3ccc(C)cc3c2=O)cc1`: the GI50 is 3.39 µM and the TGI is 48.3 µM. The like results for `Cn1cc(-c2csc(-c3cccc(F)c3)n2)c2cccnc21` were, in that order, 20 µM and 55.6 µM. In the case of `Cn1cc(C2=C(c3cn(CCCN=C(N)N)c4ccccc34)C(=O)NC2=O)c2ccccc21`, the GI50 is above 11.2 µM and the TGI is above 25 µM.
